Holding throughout (type): in vivo
In data set [1] the test system is C57BL/6J mice. Nature of the data set: Reference Pharmacological Test 1: effect of EV06 instillation on lens elasticity. As to conditions: 3 times per day for 15 to 17 days; for Lens elasticity improvement: 2.5 μL/eye, 8-month-old mice, vs vehicle control. The method, then: The effect of lipoic acid choline ester (EV06) on the lens elasticity was examined. The tests were conducted with reference to the methods described in InvestOphthalmol Vis Sci, 57, 2851-2863, 2016. EV06 is a compound represented by the following formula: A vehicle comprising 0.1% (w/v) of ethyl pyruvate, 0.269% (w/v) of sodium dihydrogenphosphate monohydrate (NaH2PO4.H2O), 0.433% (w/v) of disodium hydrogenphosphate (Na2HPO4), 0.2% (w/v) of hydroxypropyl methylcellulose, 0.5% (w/v) of NaCl, and purified water (appropriate amount) was prepared. EVO6 was sonicated with the addition of the vehicle to prepare a 5% (w/v) suspension. The resulting 5% (w/v) suspension was diluted with the vehicle to prepare a 1.5% (w/v) solution. Further, the resulting 1.5% (w/v) solution was diluted with the vehicle to prepare a 0.5% (w/v) solution. The total amount of each sample to be used in one day was prepared before use. 1) Each test sample (2.5 μL/eye) was instilled into the right eye of 8-month-old C57BL/6J mice with a Pipetman 3 times per day (around 9:00, 13:00 and 17:00) for 15 to 17 days. 2) After the final instillation, the mice were euthanized by carbon dioxide inhalation, and then the eyeballs were extracted and rinsed with Hank's balanced salt solution (HBSS). 3) The sclera near the optic nerve was cut with a razor, the lens was removed through the incision, and the removed lens was immersed in HBSS. 4) The lens was placed on a glass slide, and an all-in-one fluorescence microscope BZ-9000 (Keyence) was used to capture an image of the lens (Image a). 5) Next, one cover glass (Corning^(registered trade mark) 22×22 mm Square) was placed on the lens, and an image in which the thickness of the lens changed due to the weight was similarly captured (Image b). 6) A change in the lens diameter was calculated from Equation 1 wherein the lens diameter of Image a is subtracted from the lens diameter of Image b, as described below. Then, the lens elasticity improvement of each sample group compared with the vehicle control group was calculated from Equation 2 described below. The mean of the vehicle control group was based on 6 eyes and the mean of each EV06 sample group was based on 12 eyes. Change in lens diameter=Lens diameter in Image b of each test sample−Lens diameter in Image a of each test sample Equation 1 Lens elasticity improvement of each sample group=Mean change in lens diameter of each EV06 sample group−Mean change in lens diameter of Vehicle control group equation 2

The test system of data set [2] is C57BL/6J mice. The data set is described as follows: Pharmacological Test-1: 3 times-daily instillation for 2 weeks, lens elasticity. As to conditions: 3 times per day for 14 days; for Lens elasticity improvement: 0.03% (w/v) sample, 2.5 μL/eye, 9-month-old mice, vs vehicle control; for Lens elasticity effect compared with the vehicle control group (in words): 0.03% sample group. The method, then:
The effect of 3 times-daily instillation of Compound 1 for 2 weeks on the lens elasticity was examined. The tests were conducted with reference to the methods described in InvestOphthalmol Vis Sci, 57, 2851-2863, 2016.
A vehicle comprising 1.0% (w/v) of polyoxyl 35 castor oil (hereinafter also referred to as “CO35”), 0.1% (w/v) of ethyl pyruvate, 0.269% (w/v) of sodium dihydrogenphosphate monohydrate (NaH2 PO4.H2O), 0.433% (w/v) of disodium hydrogenphosphate (Na2 HPO4), 0.2% (w/v) of hydroxypropyl methylcellulose, 0.5% (w/v) of NaCl, and purified water (appropriate amount) was prepared.
Compound 1 was stirred with the addition of the vehicle to give a 0.03% (w/v) solution. After preparation, it was refrigerated.
EVO6 was stirred with the addition of the vehicle to give a 0.03% (w/v) solution, which was for comparison in the test for Compound 1. After preparation, it was refrigerated.
1) Each test sample (2.5 μL/eye) was instilled into both eyes of 9-month-old C57BL/6J mice with a Pipetman 3 times per day (around 9:00, 13:00 and 17:00) for 14 days.
(§1) 2) After the final instillation, the mice were euthanized by carbon dioxide inhalation, and then the eyeballs were extracted and rinsed with Hank's balanced salt solution (HBSS).
(§2) 3) The sclera near the optic nerve was cut with a razor, the lens was removed through the incision, and the removed lens was immersed in HBSS.
(§3) 4) The lens was placed on a glass slide, and an all-in-one fluorescence microscope BZ-9000 (Keyence) was used to capture an image of the lens (Image a).
(§4) 5) Next, one cover glass (Corning(registered trade mark) 22×22 mm Square) was placed on the lens, and an image in which the thickness of the lens changed due to the weight was similarly captured (Image b).
6) A change in the lens diameter was calculated from the following Equation 1 wherein the lens diameter of Image a is subtracted from the lens diameter of Image b. Then, the lens elasticity improvement of each sample group compared with the vehicle control group was calculated from Equation 2 described below. The mean value of the vehicle control group was based on 8 eyes, and the mean value of each of the sample groups of Compound 1 and EVO6 was based on 10 eyes.
(§5) Change in lens diameter=Lens diameter in Image b of each test sample−Lens diameter in Image a of each test sample Equation 1
(§6) Lens elasticity improvement of each sample group=Mean change in lens diameter of each Test sample group−Mean change in lens diameter of Vehicle control group Equation 2

In data set [3] the test system is C57BL/6J mice. Nature of the data set: Pharmacological Test-5: once-daily instillation of Compounds 5, 6 and 7 for 2 weeks, lens elasticity. As to conditions: once per day for 14 days. The protocol: The effect of once-daily instillation of each of Compounds 5, 6, and 7 for 2 weeks on the lens elasticity was examined.
(§7) A vehicle comprising 1.0% (w/v) of CO35, 0.1% (w/v) of ethyl pyruvate, 0.269% (w/v) of sodium dihydrogenphosphate monohydrate (NaH2 PO4.H2O), 0.433% (w/v) of disodium hydrogenphosphate (Na2HPO4), 0.2% (w/v) of hydroxypropyl methylcellulose, 0.5% (w/v) of NaCl, and purified water (appropriate amount) was prepared.
Compound 5 was stirred with the addition of the vehicle to give a 0.1% (w/v) suspension. The resulting 0.1% (w/v) suspension was diluted with the vehicle to give a 0.03% (w/v) suspension.
Compound 6 was stirred with the addition of the vehicle to give a 0.1% (w/v) suspension. The resulting 0.1% (w/v) a suspension was diluted with the vehicle to give a 0.03% (w/v) suspension.
Compound 7 was stirred with the addition of the vehicle to give a 0.1% (w/v) suspension.
After preparation, all were refrigerated.
EVO6 was stirred with the addition of the vehicle to give a 0.03% (w/v) solution, which was for comparison in the test for Compounds 5, 6 and 7. After preparation, it was refrigerated.
1) Each test sample (2.5 μL/eye) was instilled into both eyes of 8-month-old C57BL/6J mice with a Pipetman once per day (around 13:30) for 14 days.
as §1, §2, §3, §4
6) A change in the lens diameter was calculated from Equation 1 wherein the lens diameter of Image a is subtracted from the lens diameter of Image b, as described below. Then, the lens elasticity improvement of each sample group compared with the vehicle control group was calculated from Equation 2 described below. The mean value of each group was based on 8 eyes.
as §5, §6

Data set [4] deals with Japanese White rabbit. The data set is described as follows: Ocular irritation test-1 (McDonald-Shadduck method). The conditions noted are these: 50 μL/eye, 10 times at 30-minute intervals. Set-up: key to Irritation Score of anterior segment of the eye: Discharge / Irritation Score of anterior segment of the eye: Anterior chamber flare / Irritation Score of anterior segment of the eye: Light reflex / Irritation Score of anterior segment of the eye: Iris / Irritation Score of anterior segment of the eye: Corneal opacity / Irritation Score of anterior segment of the eye: Corneal angiogenesis / Irritation Score of anterior segment of the eye: Corneal epithelial disorder / Irritation Score of anterior segment of the eye: Conjunctival hyperemia / Irritation Score of anterior segment of the eye: Conjunctival edema: —: No noteworthy findings. The method, then:
A vehicle eye drop and a 0.03% (w/v) Compound 1 eye drop were prepared in the same manner as Preparation of Test sample in Pharmacological test-1.
The vehicle eye drop, and the 0.03% (w/v) Compound 1 eye drop were each instilled into one eye of a Japanese White rabbit at a dose volume of 50 μL/eye with pipette 10 times at 30-minute intervals. One hour after the final instillation, ocular irritation of anterior segment of the eye was evaluated using a slit lamp according to the McDonald-Shadduck method.
Observation for corneal epithelial disorder was conducted 3 hours after the final instillation.
The ocular irritation of anterior segment of the eye was scored according to the following criteria: • 1: slight; +2: moderate; +3: severe

The test system of data set [5] is C57BL/6J mice. Nature of the data set: Pharmacological Test-2: once-daily instillation of Compound 1 for 2 weeks, lens elasticity. As to conditions: once per day for 14 days; for Lens elasticity improvement: 2.5 μL/eye, 9-month-old mice, vs vehicle control. The method, then:
The effect of once-daily instillation of Compound 1 for 2 weeks on the lens elasticity was examined.
as §7
To Compound 1 was added the vehicle to give a 0.1% (w/v) solution. The resulting 0.1% (w/v) solution was diluted with the vehicle to give a 0.03% (w/v) solution. Further, the resulting 0.03% (w/v) solution was diluted with the vehicle to give a 0.01% (w/v) solution. After preparation, all were frozen.
1) Each test sample (2.5 μL/eye) was instilled into both eyes of 9-month-old C57BL/6J mice with a Pipetman once per day (around 9:00) for 14 days.
as §1, §2, §3, §4
6) A change in the lens diameter was calculated from Equation 1 wherein the lens diameter of Image a is subtracted from the lens diameter of Image b, as described below. Then, the lens elasticity improvement of each sample group compared with the vehicle control group was calculated from Equation 2 described below. The mean value of the vehicle control group was based on 9 eyes, and the mean value of each of the sample groups of Compound 1 was based on 10 eyes.
as §5, §6

Data set [6] concerns C57BL/6J mice. The data set is described as follows: Pharmacological Test-3: once-daily instillation of Compounds 1, 2 and 3 for 2 weeks, lens elasticity. As to conditions: 0.03% sample, 2.5 μL/eye, once per day for 14 days, 8-month-old mice, vs vehicle control. The protocol: The effect of once-daily instillation of each of Compounds 1, 2 and 3 for 2 weeks on the lens elasticity was examined.
as §7
Each of Compounds 1 and 2 was stirred with the addition of the vehicle to give a 0.1% (w/v) solution.
To Compound 3 was added the vehicle to give a 0.1% (w/v) suspension. The resulting 0.1% (w/v) suspension was diluted with the vehicle to give a 0.03% (w/v) solution. Further, the resulting 0.03% (w/v) solution was diluted with the vehicle to give a 0.01% (w/v) solution.
After preparation, all were frozen.
1) Each test sample (2.5 μL/eye) was instilled into both eyes of 8-month-old C57BL/6J mice with a Pipetman once per day (around 9:00) for 14 days.
as §1, §2, §3, §4
6) A change in the lens diameter was calculated from Equation 1 wherein the lens diameter of Image a is subtracted from the lens diameter of Image b, as described below. Then, the lens elasticity improvement of each sample group compared with the vehicle control group was calculated from Equation 2 described below. The mean value of each group was based on 10 eyes.
as §5, §6

[7] abbreviates: 0.03% eye drop, 1 hour after the final instillation.

Consider `C[N+](C)(C)CCOC(=O)CCCC[C@@H]1CCSS1.[Cl-]` [EV06, lipoic acid choline ester, reference compound], for which the Lens elasticity improvement in data set [1] (0.5% (w/v) sample) was 28.8 μm; in data set [1] (1.5% (w/v) sample) it was 47.3 μm; in data set [1] (5% (w/v) sample), 48.7 μm; in data set [2], 3.6 μm; in data set [3] (0.03% sample, 2.5 μL/eye, 8-month-old mice, vs vehicle control), 3.1 μm. The “Lens elasticity effect compared with the vehicle control group (in words)” value in data set [1] (0.5%, 1.5% and 5% groups) is recorded as “elasticity improving effect”; in data set [2], “no improvement in lens elasticity”. The “Lens elasticity effect (in words)” value in data set [3] (0.03% sample group) is given as “no elasticity improving effect”.

As for `OCCCCC[C@@H](S)CCS` [Compound 1, (R)-6,8-Dimercaptooctan-1-ol], in data set [4] (0.03% (w/v) eye drop), the “Irritation in anterior segment of the eye (in words)” value was “No irritation was observed”. Further, in data set [4] (setting [7]), the “Irritation Score of anterior segment of the eye: Anterior chamber flare” value is “—”, the “Irritation Score of anterior segment of the eye: Conjunctival edema” value is listed as “—”, the “Irritation Score of anterior segment of the eye: Corneal angiogenesis” value is “—” and the “Irritation Score of anterior segment of the eye: Corneal opacity” value was “—”. In data set [4] (setting [7]), the “Irritation Score of anterior segment of the eye: Discharge” value is “—”, the “Irritation Score of anterior segment of the eye: Iris” value is “—” and the “Irritation Score of anterior segment of the eye: Light reflex” value is reported as “—”. Further, the “Irritation Score of anterior segment of the eye: Conjunctival hyperemia” value in data set [4] (0.03% eye drop, 1 hour after the final instillation, scale +1 slight, +2 moderate, +3 severe) is on record as “—”. Besides, in data set [4] (0.03% eye drop, 3 hours after the final instillation), the “Irritation Score of anterior segment of the eye: Corneal epithelial disorder” value was “—”. In data set [5] (0.01% (w/v) sample), the Lens elasticity improvement amounted to 17.5 μm. Besides, the Lens elasticity improvement in data set [5] (0.03% (w/v) sample) is given as 53.0 μm. Also, the Lens elasticity improvement in data set [5] (0.1% (w/v) sample) came out at 63.3 μm. Further, the “Lens elasticity effect (in words)” value in data set [5] (all of the concentrations of 0.01%, 0.03% and 0.1%) is on record as “showed an elasticity improving effect”. For the same compound, in data set [2], the Lens elasticity improvement was 53.8 μm and the “Lens elasticity effect compared with the vehicle control group (in words)” value is “potent elasticity improving effect”. The compound also registered a Lens elasticity improvement in data set [6] of 55.5 μm.
